According to patent US9000044B2, “Substituted naphthylacetic acids” (Hoffmann-La Roche Inc., priority 2012, dated 2015):
pIC50: −log10 of the molar value.

How the values were obtained:
[1] = molecular target: T1, human CRTH2 (Homo sapiens (Human), UniProt Q9Y5Y4); assay: Calcium Flux Assay Using Fluorometric Imaging Plate Reader (FLIPR); format: cell-based; conditions: CHO-K1 cells with G-alpha 16 and human CRTH2; inhibition of DK-PGD2 ligand-induced Ca2+ flux
Description: Calcium Flux Assay Using Fluorometric Imaging Plate Reader (FLIPR)
Cell Culture Conditions: CHO-K1 cells previously transfected with G-alpha 16 were subsequently transfected with the human CRTH2 receptor and the neomycin resistance gene. Following selection in 800 μg/mL G418 (geneticin), individual clones were assayed for their receptor expression based on staining with an anti human CRTH2 IgG, followed by assaying for their response to 13,14-dihydro-15-keto Prostaglandin D2 (DK-PDG2) (ligand) in the Ca^2+ Flux assay. Positive clones were then cloned by limiting dilution cloning. The transfected cells were cultured in Ham's F-12 medium supplemented with 10% fetal bovine serum, 2 mM glutamine, 100 U/mL penicillin/100 μg/mL streptomycin, 200 μg/mL hygromycin B, and 800 μg/mL G418 (geneticin). Cells were harvested with trypsin-EDTA (trypsin-ethylenediaminetetraacetic acid) and counted using ViaCount® reagent (from Guava Technologies, Inc. which contains two DNA-binding dyes that enable the reagent user to distinguish between viable and non-viable cells). The cell suspension volume was adjusted to 2.5×10^5 cells/mL with complete growth media. Aliquots of 50 μL were dispensed into BD Falcon™ 384 well black/clear microplates (from BD Biosciences, a division of Becton, Dickinson and Company) and the microplates were placed in a 37° C. CO2 incubator overnight. The following day, the microplates were used in the assay.
Loading Buffer containing dye (from the FLIPR® Calcium 3 Assay Kit from Molecular Devices, a division of MDS Analytical Technologies and MDS Inc.) was prepared by dissolving the contents of one bottle into 200 mL Hank's Balanced Salt Solution containing 20 mM HEPES (4-(2-hydroxyethyl)-1-piperazineethanesulfonic acid) and 2.5 mM probenecid. Growth media was removed from the cell plates and 25 μL of Hank's Balanced Salt Solution (HBSS) containing 20 mM HEPES, 0.05% BSA and 2.5 mM probenecid was added to each well followed by 25 μL of diluted dye using a Multidrop dispenser. The plates were then incubated for 1 hour at 37° C.
During the incubation, test compound plates were prepared by adding 90 μL of HBSS/20 mM HEPES/0.005% BSA buffer to the 2 μL of serial diluted compounds. To prepare serial diluted compounds, 20 mM stocks of compounds were dissolved in 100% DMSO. The compound dilution plate was set up as follows: well #1 received 5 μL of compound plus 10 μL of DMSO. Wells 2-10 received 10 μL of DMSO. 5 μL was mixed and transferred from well #1 into well #2. 1:3 serial dilutions were continued out 10 steps. 2 μL of diluted compound was transferred into duplicate wells of a 384 well “assay plate” and then 90 μL of buffer was added.
After incubation, both the cell and “assay plate” plates were brought to the fluorometric imaging plate reader (FLIPR®) and 20 μL of the diluted compounds were transferred to the cell plates by the FLIPR®. Plates were then incubated for 1 hour at room temperature. […] During the assay, fluorescence readings were taken simultaneously from all 384 wells of the cell plate every 1.5 seconds. Five readings were taken to establish a stable baseline, then 20 μL of sample was rapidly (30 μL/sec) and simultaneously added to each well of the cell plate. The fluorescence was continuously monitored before, during and after sample addition for a total elapsed time of 100 seconds. Responses (increase in peak fluorescence) in each well following agonist addition were determined. The initial fluorescence reading from each well, prior to ligand stimulation, was used as a zero baseline value for the data from that well. The responses were expressed as % inhibition of the buffer control.

[2] = molecular target: T1, human CRTH2; assay: Human CRTH2 Receptor Binding Assay (whole cell, [3H]ramatroban); conditions: CHO-K1 cells expressing human CRTH2 and G-alpha16; 20 nM [3H]ramatroban; 1 hour, room temperature
Source text: Human CRTH2 Receptor Binding Assay
A whole cell receptor binding assay using [^3H]ramatroban as the competing radioactive ligand was employed to evaluate the compound binding activity to human CRTH2. The radioactive ligand [^3H]ramatroban was synthesized according to Sugimoto et. al. (Eur. J. Pharmacol. 524, 30-37, 2005) to a specific activity of 42 Ci/mmol.
A cell line stably expressing human CRTH2 was established by transfecting CHO-K1 cells with two mammalian expression vectors that harbored human CRTH2 and G-alpha16 cDNAs, respectively, using FuGene® 6 transfection reagent (from Roche). Stable clones expressing CRTH2 were selected by staining each clone with BM16 (BD Pharmingen™ from BD Biosciences, a division of Becton, Dickinson and Company), which is a rat monoclonal antibody to human CRTH2. The cells were maintained as monolayer cultures in Ham's F-12 medium containing 10% fetal bovine serum, 100 units/mL penicillin, 100 μg/mL streptomycin, 2 mM glutamine, 0.5 mg/mL G418 (geneticin) for CRTH2, and 0.2 mg/mL hygromycin-B (for G-alpha 16). For whole cell receptor binding assay, the monolayer cells were rinsed once with PBS (phosphate buffered saline), dissociated using ethylenediaminetetraacetate (Versene™ EDTA from Lonza Inc.), and suspended in PBS containing 10 mM MgCl2 and 0.06% BSA (bovine serum albumin) at 1.5×10^6 cells/mL.
The binding reactions (0.2 mL) were performed in 96-well plates at room temperature in PBS containing 1.5×10^5 cells, 10 mM MgCl2, 0.06% BSA, 20 nM [^3H]ramatroban, and test compound at various concentrations. After 1 hour of binding reactions, the cells were harvested on GF™/B filter microplates (microtiter plates with embedded glass fiber from PerkinElmer, Inc.) and washed 5 times with PBS using a Filtermate™ Harvester (a cell harvester that harvests and washes cells from microplates from PerkinElmer, Inc.). The radioactivities bound to the cells were determined using a microplate scintillation counter (TopCount® NXT, from PerkinElmer, Inc.) after adding 50 μL of Microscint™ 20 scintillation fluid (from PerkinElmer, Inc.) to each well of the filter plates. The radioactivity from non-specific binding was determined by replacing compound with 10 μM of 15(R)-15-methyl PGD2 (from Cayman Chemical Company) in the reaction mixtures. The radioactivity bound to the cells in the absence of compound (total binding) was determined by replacing compound with 0.25% of DMSO (dimethyl sulfoxide) in the reaction mixture. Specific binding data were obtained by subtracting the radioactivity of non-specific binding from each binding data.
The IC50 value is defined as the concentration of the tested compound that is required for 50% inhibition of total specific binding. In order to calculate the IC50 value, the percent inhibition data were determined for 7 concentrations for each compound. The percent inhibition for a compound at each concentration was calculated according to the following formula, [1-(specific binding in the presence of compound)/(total specific binding)]×100. The IC50 value was then obtained by fitting the percent inhibition data to a sigmoidal dose-response (4 parameter logistic) model in the XLfit® software Excel add-in program [from ID Business Solutions Ltd., model 205, where F(x)=(A+(B−A)/(1+((C/x)^D)))].

[3] = system: Th2 cells; assay: DK-PGD2-Induced IL-13 Production Assay in Th2 Cells; format: cell-based; conditions: human Th2 cells; 500 nM DK-PGD2; 4 hrs at 37° C.; IL-13 by ELISA
Description: DK-PGD2-Induced IL-13 Production Assay in Th2 Cells
Cultures of Th2 cells were established from blood of healthy human volunteers according to the following procedure. Peripheral blood mononuclear cells (PBMC) were first isolated from 50 mL of fresh blood by Ficoll-Hypaque density gradient centrifugation, followed by CD4^+ cell purification using a CD4^+ T Cell Isolation Kit II (from Miltenyi Biotec Inc.). The CD4^+ T cells were then differentiated to Th2 cells by culturing the cells in X-VIVO 15® medium (from Cambrex BioScience Walkersville Inc.) containing 10% human AB serum (serum of blood type AB from Invitrogen Corporation), 50 U/mL of recombinant human interleukin-2 (rhIL-2) (from PeproTech Inc.) and 100 ng/mL of recombinant human interleukin-4 (rhIL-4) (from PeproTech Inc.) for 7 days. […] In general, 70% to 80% of the Th2 cells used in the assay are CRTH2-positive when analyzed by fluorescence-activated cell sorting using the BM16 antibody (as previously described) conjugated to Alexa Fluor 647.
The spontaneous production of IL-13 by Th2 cells was determined in the absence of DK-PGD2 stimulation and the value was subtracted from that in the presence of each compound for percent inhibition and IC50 calculations. […]

T1 sequence (Q9Y5Y4 whole entry): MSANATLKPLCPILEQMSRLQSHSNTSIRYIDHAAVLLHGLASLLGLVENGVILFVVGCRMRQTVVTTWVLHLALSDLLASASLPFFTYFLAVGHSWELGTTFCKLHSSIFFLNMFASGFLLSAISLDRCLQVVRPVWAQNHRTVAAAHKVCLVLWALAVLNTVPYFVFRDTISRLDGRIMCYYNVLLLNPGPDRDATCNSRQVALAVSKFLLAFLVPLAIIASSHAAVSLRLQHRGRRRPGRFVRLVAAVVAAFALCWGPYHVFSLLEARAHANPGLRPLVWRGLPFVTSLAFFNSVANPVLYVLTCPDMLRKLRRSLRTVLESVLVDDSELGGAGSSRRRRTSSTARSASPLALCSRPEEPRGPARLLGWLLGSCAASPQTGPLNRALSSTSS

Row | Structure (SMILES) | pIC50 [1] | pIC50 [2] | pIC50 [3]
1 | Cc1ccccc1S(=O)(=O)c1ccc(-c2c(C)c(CC(=O)O)cc3ccc(F)cc23)cc1 [Example 1, {6-Fluoro-3-methyl-4-[4-(toluene-2-sulfonyl)-phenyl]-naphthalen-2-yl}-acetic acid] | 9.52 | 8.54 | –
2 | Cc1c(CC(=O)O)cc2ccc(Cl)cc2c1-c1ccc(S(=O)(=O)N2CCCC2)cc1 [Example 33, {6-Chloro-3-methyl-4-[4-(pyrrolidine-1-sulfonyl)-phenyl]-naphthalen-2-yl}-acetic acid] | 9.10 | – | 8.10
3 | Cc1c(CC(=O)O)cc2ccc(F)cc2c1-c1ccc(S(C)(=O)=O)cc1 [Example 54, [6-Fluoro-4-(4-methansulfonyl-phenyl)-3-methyl-naphthalen-2-yl]-acetic acid] | 7.60 | 7.40 | –
4 | Cc1c(CC(=O)O)cc2ccc(Cl)cc2c1-c1ccc(S(=O)(=O)N2CCOCC2)cc1 [Example 55, {6-Chloro-3-methyl-4-[4-(morpholino-4-sulfonyl)-phenyl]-naphthalen-2-yl}-acetic acid] | – | 8.62 | –
5 | Cc1c(CC(=O)O)cc2ccc(F)cc2c1-c1ccc(S(C)(=O)=O)cn1 [Example 58, [6-Fluoro-4-(5-methanesulfonyl-pyridin-2-yl)-3-methyl-naphthalen-2-yl]-acetic acid] | 5.95 | 6.86 | –
6 | Cc1c(CC(=O)O)cc2ccc(F)cc2c1-c1ccc(NS(=O)(=O)c2ccccc2)cc1 [Example 59, [4-(4-Benzenesulfonylamino-phenyl)-6-fluoro-3-methyl-naphthalen-2-yl]-acetic acid] | – | 8.49 | –
7 | Cc1c(CC(=O)O)cc2ccc(F)cc2c1-c1ccc(NS(=O)(=O)c2cc(C(F)(F)F)cc(C(F)(F)F)c2)cc1 [Example 60, {4-[4-(3,5-Bis-trifluoromethyl-benzenesulfonylamino)-phenyl]-6-fluoro-3-methyl-naphthalen-2-yl}-acetic acid] | 10.00 | 8.25 | –
8 | Cc1c(CC(=O)O)cc2ccc(Cl)cc2c1-c1ccc(NS(=O)(=O)c2ccccc2)cc1 [Example 61, [4-(4-Benzenesulfonylamino-phenyl)-6-chloro-3-methyl-naphthalen-2-yl]-acetic acid] | – | 8.43 | –
9 | Cc1c(CC(=O)O)cc2ccc(Cl)cc2c1-c1ccc(NS(=O)(=O)c2ccccc2C(F)(F)F)cc1 [Example 62, {6-Chloro-3-methyl-4-[4-(2-trifluoromethyl-benzenesulfonylamino)-phenyl]-naphthalen-2-yl}-acetic acid] | – | 8.05 | –
10 | Cc1ccccc1S(=O)(=O)Nc1ccc(-c2c(C)c(CC(=O)O)cc3ccc(Cl)cc23)cc1 [Example 63, {6-Chloro-3-methyl-4-[4-(toluene-2-sulfonylamino)-phenyl]-naphthalen-2-yl}-acetic acid] | – | 8.08 | –
11 | CC(=O)Nc1ccc(-c2c(C)c(CC(=O)O)cc3ccc(Cl)cc23)cc1 [Example 64, [4-(4-Acetylamino-phenyl)-6-chloro-3-methyl-naphthalen-2-yl]-acetic acid] | – | 7.53 | –
12 | Cc1c(CC(=O)O)cc2ccc(Cl)cc2c1-c1ccc(NC(=O)c2ccccc2)cc1 [Example 65, [4-(4-Benzoylamino-phenyl)-6-chloro-3-methyl-naphthalen-2-yl]-acetic acid] | – | 8.21 | –
13 | Cc1c(CC(=O)O)cc2ccc(Cl)cc2c1-c1ccc(NC(=O)Nc2ccccc2)cc1 [Example 66, {6-Chloro-3-methyl-4-[4-(3-phenyl-ureido)-phenyl]-naphthalen-2-yl}-acetic acid] | – | 7.72 | –
